Patent US10443081B2, “Methods for the expression of peptides and proteins” (Numaferm GmbH, priority 2013, dated 2019)
Like-named read-outs stand apart in the source and are kept apart here.

Molecular target: T1, HlyA1-IFABP fusion protein (encoded by pIAR_207, SEQ ID NO: 20; IFABP wt accession NP_037200) (Rattus norvegicus, UniProt P02693)
T1 construct: pIAR_207
Assay: Fluorescence spectroscopy titration with DAUDA, refolded HlyA1-IFABP
Type: binding
Conditions: 100 nM protein, 20 mM KH2PO4, 0.25 mM EDTA, pH 7.3, excitation 350 nm, emission 500 nm
Experimental: SEC analyses of refolded HlyA1-IFABP. A and C: SDS-PAGE gel of elution fractions from SEC analysis of HlyA1-IFABP refolded with Ca^2+ and elution chromatogram of the SEC. B and D: SDS-PAGE gel of elution fractions from SEC analysis of HlyA1-IFABP refolded with EDTA and elution chromatogram of the SEC. E: Purified HlyA1-IFABP in the presence of either Ca^2+ or EDTA were incubated with Factor Xa and protein samples were analyzed by SDS-PAGE at indicated time points. The arrow indicates the position of IFABP. F and G: Functional studies of HlyA1-IFABP using titration experiments with DAUDA. F: HlyA1-IFABP was refolded in the presence of Ca^2+ and purified by SEC. DAUDA was titrated to HlyA1-IFABP, the fluorescence signal at 500 nm was recorded and plotted against the DAUDA concentration. […]
11-(Dansylamino)undecanoic acid (DAUDA, Cayman Chemical) was prepared as a 1 mM stock solution in 50% isopropanol and 50% buffer (20 mM KH2PO4, 0.25 mM EDTA, pH 7.3) and further diluted to the appropriate concentrations with buffer. […] The fluorescence signal was recorded at a wavelength of 500 nm after excitation at 350 nm using a Fluorolog®-3 (Horiba) (Kim and Frieden (1998) Protein Sci, 7, 1821-1828). […] Fluorescence signals of DAUDA in buffer in the absence of protein was subtracted as background. The corrected and normalized fluorescence signals were plotted against the DAUDA concentration. […]

T1 sequence (P02693 1-132 with tags or gaps): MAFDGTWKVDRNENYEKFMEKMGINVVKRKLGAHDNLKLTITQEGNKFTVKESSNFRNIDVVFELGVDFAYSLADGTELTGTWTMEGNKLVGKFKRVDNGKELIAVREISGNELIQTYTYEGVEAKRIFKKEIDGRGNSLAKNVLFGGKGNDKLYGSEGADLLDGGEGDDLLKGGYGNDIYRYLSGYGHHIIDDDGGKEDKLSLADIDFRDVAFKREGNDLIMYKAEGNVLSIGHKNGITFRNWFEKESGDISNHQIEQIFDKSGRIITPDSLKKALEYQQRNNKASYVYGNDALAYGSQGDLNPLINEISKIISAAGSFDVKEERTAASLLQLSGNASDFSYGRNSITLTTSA

CN(C)c1cccc2c(S(=O)(=O)NCCCCCCCCCCC(=O)O)cccc12 [DAUDA, 11-(((5-(dimethylamino)-1-naphthalenyl)sulfonyl)amino)-undecanoic acid]
Kd (refolded in the presence of Ca^2+, purified by SEC, read-out: KD for HlyA1-IFABP refolded in Ca^2+): 141 nM | Kd (refolded/purified in the presence of EDTA, read-out: KD for HlyA1-IFABP refolded in EDTA): 264 nM
